We go through two compounds from patent US20210172934A1, “SINGLE CELL CLONING APPROACHES FOR BIOLOGICAL STUDIES” (priority 2018, published 2021).

For one test, the system named is Met-1 cells. In words: In vitro chemosensitivity study (CellTiter-Glo, ATP as surrogate for viability). The class given is cell-based, murine. The conditions noted are these: 72 hours incubation; ATP levels (CellTiter-Glo). As for the experimental part:
4,000 Met-1 cells were plated in quadruplicates in 96-well plates containing growth media. The next day, vehicle (PBS) or chemotherapy (doxorubicin: 0.33 nM-2.2 ∝M; paclitaxel: 14 μM-160 μM) was added to the plate and incubated for 72 hours. ATP levels were quantified as a surrogate measure for viability (CellTiter-Glo, Promega) using a luminometer (Perkin-Elmer).
We next tested responsiveness of Met-1 mammary carcinoma to combination doxorubicin (A), cyclophosphamide (C), and paclitaxel (T) chemotherapy, AC-T, a standard of care chemotherapy regimen for breast cancer patients with ER-negative disease. We first tested the sensitivity of Met-1 cells to doxorubicin and paclitaxel in vitro and performed an initial in vivo experiment to identify a therapeutically relevant, well-tolerated combinatorial dose.

Test [1] relates to MT-2 WT and KO cell lines. In words: In vitro sensitivity of MT-2 WT and KO cell lines to chemotherapy. The class given is cell-based, murine. As for the experimental part:
4,000 […] cells were plated in quadruplicates in 96-well plates containing growth media. The next day, vehicle (PBS) or chemotherapy (doxorubicin: 0.33 nM-2.2 ∝M; paclitaxel: 14 μM-160 μM) was added to the plate and incubated for 72 hours. ATP levels were quantified as a surrogate measure for viability (CellTiter-Glo, Promega) using a luminometer (Perkin-Elmer).

Take `CC(=O)O[C@H]1C(=O)[C@@]2(C)[C@H]([C@H](OC(=O)c3ccccc3)[C@]3(O)C[C@H](OC(=O)[C@H](O)[C@@H](NC(=O)c4ccccc4)c4ccccc4)C(C)=C1C3(C)C)[C@]1(OC(C)=O)CO[C@@H]1C[C@@H]2O` [paclitaxel]: the “viability of Met-1 cells in vitro” value with Met-1 cells is listed as “significantly decreased viability”. For the same compound, the “(enhanced) sensitivity of MT-2 KO versus WT in vitro” value in test [1] was “not apparent”.

As to `COc1cccc2c1C(=O)c1c(O)c3c(c(O)c1C2=O)C[C@@](O)(C(=O)CO)C[C@@H]3O[C@H]1C[C@H](N)[C@H](O)[C@H](C)O1` [doxorubicin, Doxorubicin], the “viability of Met-1 cells in vitro” value in the test with Met-1 cells was “significantly decreased viability”. In test [1], the “(enhanced) sensitivity of MT-2 KO versus WT in vitro” value is reported as “not apparent”.
